Measured values taken from patent US20250152599A1 (priority 2020, published 2025).
pEC50, pIC50: −log10 of the molar value. Where two headings read alike, the source gives them in different places.

Columns and labels:
[1] = system: HCoV 229E; assay: microbe, parasite or virus in culture; details: unidentified human coronavirus
[2] = in vitro; details: human
[3] = system: novel coronavirus (SARS-CoV-2); assay: microbe, parasite or virus in culture; format: cell-based; details: for pEC50: Severe acute respiratory syndrome coronavirus 2, Vero, read-out: EC50 for inhibiting the novel coronavirus
[4] = system: Vero cells; details: for CC10: African green monkey
[5] = system: MRC5 cells; details: human
[6] = in vitro; details: African green monkey
[7] = system: HCoV 229E
[8] = in vitro
[9] = system: novel coronavirus; assay: Inhibitory effect of PI0101 on the novel coronavirus, 96-well plate, 76 hours; format: cell-based, SARS-CoV-2; details: Severe acute respiratory syndrome coronavirus 2, novel coronavirus 100 TCID50/well
[10] = biological target: PI4KIIIα (Homo sapiens, UniProt P42356); details: read-out: IC50 of inhibitory effect on PI4KIIIα; cited from earlier work
Sequence of PI4KIIIα (P42356 whole entry): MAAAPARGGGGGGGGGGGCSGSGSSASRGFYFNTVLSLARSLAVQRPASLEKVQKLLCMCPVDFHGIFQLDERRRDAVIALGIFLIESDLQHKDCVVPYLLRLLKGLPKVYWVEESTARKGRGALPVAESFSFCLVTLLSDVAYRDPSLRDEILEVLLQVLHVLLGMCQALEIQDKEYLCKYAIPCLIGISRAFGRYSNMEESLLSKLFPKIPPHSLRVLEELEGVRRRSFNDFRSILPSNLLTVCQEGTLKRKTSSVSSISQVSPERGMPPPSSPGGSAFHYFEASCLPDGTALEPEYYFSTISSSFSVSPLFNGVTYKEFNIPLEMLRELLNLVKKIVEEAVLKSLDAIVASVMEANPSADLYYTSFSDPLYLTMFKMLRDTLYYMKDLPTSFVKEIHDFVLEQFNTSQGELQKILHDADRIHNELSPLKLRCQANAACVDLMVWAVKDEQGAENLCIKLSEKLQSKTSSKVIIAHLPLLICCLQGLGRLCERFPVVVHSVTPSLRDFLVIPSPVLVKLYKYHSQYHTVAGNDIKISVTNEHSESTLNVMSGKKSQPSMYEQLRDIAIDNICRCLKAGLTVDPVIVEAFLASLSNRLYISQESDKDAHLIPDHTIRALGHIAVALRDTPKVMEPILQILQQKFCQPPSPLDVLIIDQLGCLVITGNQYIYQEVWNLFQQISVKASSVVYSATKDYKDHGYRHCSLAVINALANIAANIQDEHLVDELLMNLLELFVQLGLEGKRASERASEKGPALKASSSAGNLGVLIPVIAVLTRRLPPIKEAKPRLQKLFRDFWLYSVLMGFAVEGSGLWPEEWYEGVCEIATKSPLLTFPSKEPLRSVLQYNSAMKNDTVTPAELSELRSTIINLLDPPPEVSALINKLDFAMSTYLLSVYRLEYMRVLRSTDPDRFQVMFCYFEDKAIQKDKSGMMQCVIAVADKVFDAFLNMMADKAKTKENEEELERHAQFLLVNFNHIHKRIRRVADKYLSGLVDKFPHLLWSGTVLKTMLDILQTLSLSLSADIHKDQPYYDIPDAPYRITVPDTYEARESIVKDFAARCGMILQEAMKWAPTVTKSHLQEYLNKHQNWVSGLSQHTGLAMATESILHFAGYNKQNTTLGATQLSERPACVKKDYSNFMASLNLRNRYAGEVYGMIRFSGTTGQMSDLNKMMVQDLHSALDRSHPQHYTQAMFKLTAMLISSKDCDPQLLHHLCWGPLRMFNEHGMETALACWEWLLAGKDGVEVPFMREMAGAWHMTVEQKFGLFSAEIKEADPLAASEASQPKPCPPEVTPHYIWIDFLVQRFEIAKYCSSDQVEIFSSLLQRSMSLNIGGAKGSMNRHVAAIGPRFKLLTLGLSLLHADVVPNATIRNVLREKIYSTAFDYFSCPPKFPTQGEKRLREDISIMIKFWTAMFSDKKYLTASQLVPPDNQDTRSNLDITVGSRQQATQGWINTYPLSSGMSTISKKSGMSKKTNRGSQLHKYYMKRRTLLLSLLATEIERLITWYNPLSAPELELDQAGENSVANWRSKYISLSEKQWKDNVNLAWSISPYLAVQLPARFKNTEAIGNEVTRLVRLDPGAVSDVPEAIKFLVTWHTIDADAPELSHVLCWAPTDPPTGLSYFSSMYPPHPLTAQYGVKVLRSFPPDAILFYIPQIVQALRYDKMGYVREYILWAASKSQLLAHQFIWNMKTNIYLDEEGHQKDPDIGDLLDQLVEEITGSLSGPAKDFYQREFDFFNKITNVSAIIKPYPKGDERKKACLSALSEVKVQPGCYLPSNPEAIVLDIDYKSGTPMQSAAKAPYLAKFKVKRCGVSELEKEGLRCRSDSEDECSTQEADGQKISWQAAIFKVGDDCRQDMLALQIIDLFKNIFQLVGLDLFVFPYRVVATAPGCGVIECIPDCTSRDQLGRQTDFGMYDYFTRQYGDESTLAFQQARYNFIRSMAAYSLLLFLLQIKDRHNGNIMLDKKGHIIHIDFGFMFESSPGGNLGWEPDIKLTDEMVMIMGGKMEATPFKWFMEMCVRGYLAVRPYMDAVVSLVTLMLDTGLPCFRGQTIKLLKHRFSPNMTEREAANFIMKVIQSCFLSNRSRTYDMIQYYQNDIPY

Work on O=[As]c1ccc(NC(=O)CCc2ccccc2)cc1 (stereo not drawn) [YL-05] yielded a pEC50 ([1]; MRC5, 72 h) of under 6.70 and a CC50 [2] of over 0.8 µM.
CCN(CC)CCCC(C)Nc1ccnc2cc(Cl)ccc12 (stereo not drawn) [Chloroquine phosphate] showed a pEC50 [3] of 4.30 and a CC10 [4] of 120 µM.
For CC(=O)Nc1nc(C)c(-c2ccc(Cl)c(S(=O)(=O)NCCO)c2)s1 [PIK-93], the “inhibitory effect on the novel coronavirus” value [3] was “no significant inhibitory effect” and the “toxic effect on Vero cells” value [4] was “no significant toxic effect”.
With CCC(CC)COC(=O)[C@H](C)N[P@](=O)(OC[C@H]1O[C@@](C#N)(c2ccc3c(N)ncnn23)[C@H](O)[C@@H]1O)Oc1ccccc1 [Remdesivir] the CC50 [5] was 30.7 µM, the pEC50 ([1]; MRC5) was 7.58 and the CC50 [6] was 208 µM. The viability [6] was over 90%, the pEC50 [3] was 6.28 and the “SI (CC50/EC50)” value ([7]; the first test) was over 3785.01. The “SI (CC50/EC50)” value ([7]; the second test) was 2338.60 and the CC10 [4] was 55 µM.
COc1ccc2c(O[C@@H]3C[C@H]4C(=O)N[C@]5(C(=O)NS(=O)(=O)C6CC6)C[C@H]5/C=C\CCCCN(C)C(=O)[C@@H]4C3)cc(-c3nc(C(C)C)cs3)nc2c1C [PI0101, Simeprevir] showed a CC50 [8] of over 10 µM, a pEC50 [9] of 5.41 and a pEC50 ([1]; MRC5, 72 h) of 5.47. The CC50 [2] was 8.46 µM, the pIC50 [10] was 6.70 and the “SI (CC50/EC50)” value ([7]; the second test) was 2.48.
With O=[As]c1ccc(NS(=O)(=O)c2ccc(C(F)(F)F)cc2)cc1 (stereo not drawn) [YL-11] the CC50 [5] was 6.37 µM, the pEC50 [7] was 5.68 and the “SI (CC50/EC50)” value [7] was 3.03.
With COc1ccc(S(=O)(=O)Nc2ccc([As]=O)cc2)cc1 (stereo not drawn) [YL-10] the CC50 [5] was 14 µM, the pEC50 [7] was 5.40 and the “SI (CC50/EC50)” value [7] was 3.55.
O=[As]c1ccc(NS(=O)(=O)c2ccc(F)cc2)cc1 (stereo not drawn) [YL-09] gave a CC50 [5] of 13.9 µM.
